The text below walks through data of ChEMBL document CHEMBL1126387, “Use of transferred nuclear overhauser effects to determine the conformation of 1-(3,4-dichlorophenyl)-2-aminopropane when bound to the active site of phenylethanolamine N-methyltransferace (PNMT)” (Bioorg Med Chem Lett, 1992).

This test has as its target T1, Phenylethanolamine N-methyltransferase (Bos taurus, UniProt P10938).
T1 sequence (P10938 whole entry): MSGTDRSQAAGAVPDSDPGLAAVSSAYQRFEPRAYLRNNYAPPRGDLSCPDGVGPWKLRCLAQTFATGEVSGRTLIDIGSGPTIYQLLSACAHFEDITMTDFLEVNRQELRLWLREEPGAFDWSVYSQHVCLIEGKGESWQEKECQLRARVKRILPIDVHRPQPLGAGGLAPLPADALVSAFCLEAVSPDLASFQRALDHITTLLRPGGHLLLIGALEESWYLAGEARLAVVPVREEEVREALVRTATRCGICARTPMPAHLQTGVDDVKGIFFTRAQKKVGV
Briefly: Inhibitory activity against bovine adrenal phenylethanolamine N-methyltransferase(PNMT).

pKi: −log10 of the molar value.

Broadly, the pKi is −log10 of the Ki, conventionally taken in molar units. A low value points to a high Ki. The compound `CC(N)Cc1ccc(Cl)c(Cl)c1` (stereo unspecified) gave a pKi of 5.17.
